Where no end group is shown, it is not given here.
System: drug-resistant Mycobacterium tuberculosis
Format: cell-based
Details: 10 micrograms per ml; seven days at 37° C.; strain resistant to PAS, streptomycin and isoniazid

| Substance | inhibition of the growth of Mycobacterium tuberculosis |
| --- | --- |
| Lys-Ile-Cys-Ile-Arg-Ile-Gln-Ile-Ser-OH (KICIRIQIS-OH) [Peptide 1] | 100% |
| D-Ala-Gln-octadecyl ester [Peptide 2] | 100% |

Reference: patent US20100210562A1, “USE OF IL-1 RECEPTOR PEPTIDE, ALONE OR IN COMBINATION WITH D-ALA-GLN-OCTADECYL ESTER, AS A THERAPEUTIC AGENT” (priority 2007, published 2010)
